From patent US4201860A, “Purine derivatives” (Bristol-Myers Company, priority 1979, dated 1980)

How the values were obtained:
[1] = tested on: platelet aggregation; conditions: in words; Chem Pharm. Bull., 25(7), 1811-1821 (1977); cited from earlier work
[2] = tested on: arterial blood pressure / intratracheal pressure; test: Separation of bronchodilator and cardiovascular effects, ratio of hypotensive ED20 / bronchodilating ED50; format: in vivo, guinea pig
Experimental: The trachea of anesthetized guinea pig was cannulated and the ITP recorded on a polygraph under artificial ventilation. Arterial blood pressure (ABP; measure of hypotensive activity) was also measured during the experiment. Data was obtained for both intravenous and intraduodenal administration.
To assess the separation of desirable bronchodilator activity from undesirable cardiovascular (hypotensive) effect in the test compounds, the ratio of hypotensive ED20 /bronchodilating ED50 was calculated and indicated in Table 1.

[3] = tested on: Arterial blood pressure (ABP); test: In vivo hypotensive activity, arterial blood pressure (ABP) in anesthetized guinea pig; conditions: arterial blood pressure lowering (ED20, 20% reduction)
Experimental: Pharmac., 21, 379 (1969). The trachea of anesthetized guinea pig was cannulated and the ITP recorded on a polygraph under artificial ventilation. Arterial blood pressure (ABP; measure of hypotensive activity) was also measured during the experiment. Data was obtained for both intravenous and intraduodenal administration.

[4] = in words; known disadvantages; cited from earlier work
[5] = in words; cited from earlier work

SMILES	ABP/ITP ([2]; Intravenous)	ABP lowering, ED20 (20% reduction) ([3]; Intravenous) [mg/kg]	other results
Nc1nc(SC2CCCC2)nc2c1ncn2C1CCCC1	–	–	platelet aggregation inhibition [1]: slightly effective
CCOc1nc(N)c2ncn(C3C=CCCC3)c2n1 (stereo not shown) [C2 H5 O]	12	4.0	ABP/ITP ([2]; Intraduodenal): 19; ABP lowering, ED20 (20% reduction) ([3]; Intraduodenal): 12 mg/kg
CCOc1nc(N)c2ncn(C3CCCCC3)c2n1 [C2 H5 O]	6.8	2.5	–
Nc1nc(Cl)nc2c1ncn2C1C=CCCC1 (stereo not shown) [Cl]	17	2.5	–
Cn1c(=O)c2[nH]cnc2n(C)c1=O [aminophylline]	–	–	side effects [4]: gastric irritation and cardiovascular and central nervous system side effects; solubility [5]: readily soluble
CC(C)COc1nc(N)c2ncn(C3C=CCCC3)c2n1 (stereo not shown) [iso-C4 H9 O]	–	2.4	–
CC(C)COc1nc(N)c2ncn(C3CCCCC3)c2n1 [iso-C4 H9 O]	–	> 3	–
CCCOc1nc(N)c2ncn(C3C=CCCC3)c2n1 (stereo not shown) [n-C3 H7 O]	5.9	2.0	ABP/ITP ([2]; Intraduodenal): 2.0; ABP lowering, ED20 (20% reduction) ([3]; Intraduodenal): 2.4 mg/kg
CCCOc1nc(N)c2ncn(C3CCCCC3)c2n1 [n-C3 H7 O]	12	4.4	ABP/ITP ([2]; Intraduodenal): 15; ABP lowering, ED20 (20% reduction) ([3]; Intraduodenal): 18 mg/kg
CCCCOc1nc(N)c2ncn(C3C=CCCC3)c2n1 (stereo not shown) [n-C4 H9 O]	> 4.8	> 3	–
CCCCOc1nc(N)c2ncn(C3CCCCC3)c2n1 [n-C4 H9 O]	1467	4.4	ABP/ITP ([2]; Intraduodenal): 5.9; ABP lowering, ED20 (20% reduction) ([3]; Intraduodenal): 8.3 mg/kg
CCCCCOc1nc(N)c2ncn(C3C=CCCC3)c2n1 (stereo not shown) [n-C5 H11 O]	–	> 3	–
CCCCCOc1nc(N)c2ncn(C3CCCCC3)c2n1 [n-C5 H11 O]	–	> 3	–
CCCCCCOc1nc(N)c2ncn(C3C=CCCC3)c2n1 (stereo not shown) [n-C6 H13 O]	–	2.7	–
CCCCCCOc1nc(N)c2ncn(C3CCCCC3)c2n1 [n-C6 H13 O]	–	> 3	–
